Tests used:
[1] = system: MAPK signaling in HCT116 cells; test: Western blot of MAPK signaling markers; format: cell-based, human; details: HCT116, 4 hours, micromolar concentrations
Description: For Western blot studies, HCT116 cells (5×10^6) were seeded into 10 cm dishes in McCoy's 5A plus 10% FBS. […] Cells were allowed to adhere overnight prior to addition of the indicated amount of test compound (BVD-523) or vehicle control. Cells were treated for either 4 or 24 hours before isolation of whole-cell protein lysates, as specified below. Cells were harvested by trypsinisation, pelleted and snap frozen. Lysates were prepared with RIPA (Radio-Immunoprecipitation Assay) buffer, clarified by centrifugation and quantitated by bicinchoninic acid assay (BCA) assay. 20-50 μg of protein was resolved by SDS-PAGE electrophoresis, blotted onto PVDF membrane and probed using the antibodies detailed in Table 5 (for the 4-hour treatment) and Table 6 (for the 24-hour treatment) below. [table]

[2] = system: MAPK signaling in A375 cells; test: Western blot of MAPK signaling, cell cycle and apoptosis markers; format: cell-based, human
[3] = system: ERK; details: Morris et al., 2013; cited from earlier work

Row | SMILES | phosphorylation of ERK-dependent residues (T359/S363) in RSK 1 and 2 proteins [1] | cyclin-D1 level ([2]; 24 hours of treatment) | phosphorylation of ERK-dependent residues (T359/S363) in RSK 1 and 2 proteins ([2]; A375, 4 hours, micromolar concentrations) | Bim-EL level ([2]; A375, prolonged treatment) | apoptosis / PARP cleavage ([2]; A375, prolonged treatment) | MAPK feedback phosphatase DUSP6 level ([2]; BRAF mutant cell line, 24 hours of treatment) | autophosphorylation of ERK ([2]; FIG. 1 Western blot) | concentrations required to induce changes in substrate phosphorylation and effector targets of ERK ([2]; RAF and RAS mutant cancer cells, Western blot, 4 or 24 h) | autophosphorylation of ERK [3]
1 | CC(C)Nc1cc(-c2c[nH]c(C(=O)N[C@H](CO)c3cccc(Cl)c3)c2)c(Cl)cn1 [BVD-523] | reduced | greatly reduced | reduced | increased | increased apoptosis was not observed | greatly reduced | allows for the autophosphorylation of ERK | low micromolar range | 
2 | O=C(Nc1ccc2[nH]nc(-c3ccncc3)c2c1)[C@@H]1CCN(CC(=O)N2CCN(c3ccc(-c4ncccn4)cc3)CC2)C1 [SCH772984] |  |  |  |  |  |  |  |  | inhibits autophosphorylation of ERK

Source: patent publication US20160310477A1, “CANCER TREATMENTS USING COMBINATIONS OF MEK TYPE 1 AND ERK INHIBITORS” (BIOMED VALLEY DISCOVERIES, INC., priority 2013, published 2016)
